One data set concerns K. pneumoniae LMG20218. As to the kind of experiment: microbe, parasite or virus in culture. Type of data set: cell-based, Klebsiella pneumoniae. The settings on record: for MIC: Klebsiella pneumoniae. A digest of the protocol: (§1)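 Duplicate two-fold dilution series in MHB; inoculum 5*10^5 CFU/mL final, verified by colony count on agar. MIC read as lowest concentration blocking visible growth.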

In the next data set the test system is A. baumannii LMG01041. As to the kind of experiment: microbe, parasite or virus in culture. The settings on record: for MIC: Acinetobacter baumannii. The class given is cell-based, Acinetobacter baumannii. A digest of the protocol: as §1
The next data set concerns E. aerogenes LMG 02094. Here is the method:
(§2) The test of synergistic effect was processed by conducting standard chequerboard broth microdilution assays. […] Row 11 are used as growth control with no peptide was included, while row 12 with MHB medium-only wells was included as a sterility control as referred before. 50 uL fresh bacterial suspension was added to well 1-11 and final volume of each well on the plate is 100 uL.
(§3) The test of synergistic effect was processed as method 1.4.
(§4) To determine whether the combination therapy is additive, synergistic or antagonistic, fractional inhibitory concentration (FIC) indices were calculated. FICI=FICa+FICb=MICac/MICa+MICbc/MICb. The MICa/MICb is the MIC of compound A/B alone. MICac is the MIC of compound A in combination with compound B and MICbc is the MIC of compound B when it was combination with compound A. […]. FICa is FIC of compound A while FICb is FIC of compound B. The FICI is interpreted as follows: synergistic, FICI≤0.5; additive, 0.5<FICI<1; indifferent, 1<FICI<2; antagonistic, FICI>2.

The next data set deals with E. coli LMG15862. On the procedure: as §2, §3, §4
The subject of the next data set is P. aeruginosa LMG 6395. On the procedure: as §2, §3, §4
For data set [1], the system named is Acinetobacter baumannii ATCC BAA-1605. Briefly: microbe, parasite or virus in culture. The settings on record: for MIC: Acinetobacter baumannii. On the procedure: (§5) Testing was performed according to CLSI (Clinical Laboratory Standards Institute) guidelines. Read out of the study was determination of MIC—minimal inhibitory concentration expressed in μg/mL.
(§6) Out of these PBS solutions, 76.8 μL was transferred to 1423.2 μL of MH media in deep well for testing compound alone. […] Out of these working solutions 100 μL were transferred to wells in the third column of 96-well assay plates. Assay plates were previously filled with 50 μL of MH media in all wells except for the wells in the third column.
(§7) Microorganisms used were all revived from skim milk storage at −70° C. by plating them on MH agar plates. The following day a single colony of each microorganism was again streaked on fresh agar plates. The next day, using direct colony suspension method, broth solutions that achieve turbidity equivalent to 0.5 McFarland standard for each microorganism were prepared. […] Out of these suspensions, actual inoculums were prepared by diluting them 100× with MH media giving final microorganism count of 2-8×10^5 CFU/mL. For each strain of microorganisms, 20 mL of these inoculum solutions were prepared. From the second to the twelfth column of 96-well plates, 50 μL of these solutions were transferred per well. To the first column, 50 μL per well of pure growth media was added. In this manner the first column was used as sterility control of media used, the second column was used as control of microorganism's growth and the rest of the plate was used for MIC determination. All plates were incubated for 16-24 h at 37° C.
(§8) MIC value was determined by visual inspection of bacterial growth within 96-well plates. The first column in which there was no visible growth of bacteria was determined as MIC value for peptide or combination tested in that particular row.

Data set [2] has as its system Acinetobacter baumannii B2026, clinical isolate. As to the kind of experiment: microbe, parasite or virus in culture. The settings on record: for MIC: Acinetobacter baumannii. On the procedure: as §5, §6, §7, §8
The test system of data set [3] is Escherichia coli ATCC BAA-2452. As to the kind of experiment: microbe, parasite or virus in culture. The settings on record: for MIC: Escherichia coli. On the procedure:
as §5, §6, §7, §8

Data set [4] has as its system Escherichia coli B1927, clinical isolate. As to the kind of experiment: microbe, parasite or virus in culture. The settings on record: for MIC: Escherichia coli. Here is the method: as §5, §6, §7, §8
Data set [5] deals with Klebsiella pneumoniae ATCC BAA-2524. Briefly: microbe, parasite or virus in culture. The settings on record: for MIC: Klebsiella pneumoniae. Here is the method:
as §5, §6, §7, §8

The test system of data set [6] is Klebsiella pneumoniae B1945, clinical isolate. As to the kind of experiment: microbe, parasite or virus in culture. The settings on record: for MIC: Klebsiella pneumoniae. On the procedure: as §5, §6, §7, §8
Data set [7] has as its system Pseudomonas aeruginosa ATCC BAA-2108. As to the kind of experiment: microbe, parasite or virus in culture. The settings on record: for MIC: Pseudomonas aeruginosa. Here is the method:
as §5, §6, §7, §8

The test system of data set [8] is Pseudomonas aeruginosa B1954, clinical isolate. Briefly: microbe, parasite or virus in culture. The settings on record: for MIC: Pseudomonas aeruginosa. Here is the method: as §5, §6, §7, §8
A further data set deals with HEK293 cells. As to the kind of experiment: Cell viability (ATP levels, CellTiter-Glo). The settings on record: HEK293 cells. On the procedure:
ATP levels were measured by adding 50 μL of CellTiter-Glo reagent to each well and after 5 minutes of incubation luminescence was measured with SpectraMax i3.
96-well plates were seeded with HEK293 cells at concentration of 30,000 cells per well in 100 μL of DMEM growth media supplemented with 1% NEAA and 10% FBS. Border wells were filled with 100 μL of sterile PBS. The next day compounds were added to cells. Compounds were first 2× diluted in 96-well V-bottom plate in PBS. After that compounds were mixed with media in 96-deep-well plate for final concentrations. Growth media from 3 plates was aspirated and replaced with 100 μL of prepared compounds. Compounds were tested in duplicate. ATP levels were measured by adding 50 μL of CellTiter-Glo reagent to each well and after 5 minutes of incubation luminescence was measured with SpectraMax i3. […] The potential effects were then calculated and presented as IC50 values (μg/mL).
For orientation: Cellular ATP, detected with luciferase, serves as a proxy for viable cell number.

In brackets after ≈: the same amount, converted by molar mass. Several values for one entry are separate records, joined by “and”; a condition that tells them apart may be missing. Equal entries are not always repeated. Where two headings read alike, the source gives them in different places.

Consider two compounds from patent publication US20200368315A1, “ANTIMICROBIAL PEPTIDES AND ADMIXTURES THEREOF SHOWING ANTIMICROBIAL ACTIVITY AGAINST GRAM-NEGATIVE PATHOGENS” (priority 2017, published 2020).

A word on the IC50: it is the point on the concentration scale where inhibition reaches its midpoint.

In the case of `CN[C@H](CC(C)C)C(=O)N[C@H]1C(=O)N[C@@H](CC(N)=O)C(=O)N[C@H]2C(=O)N[C@H]3C(=O)N[C@H](C(=O)N[C@H](C(=O)O)c4cc(O)cc(O)c4-c4cc3ccc4O)[C@H](O)c3ccc(c(Cl)c3)Oc3cc2cc(c3O[C@@H]2O[C@H](CO)[C@@H](O)[C@H](O)[C@H]2O[C@H]2C[C@](C)(N)[C@H](O)[C@H](C)O2)Oc2ccc(cc2Cl)[C@H]1O` [Vancomycin, reference compound], the MIC in the data set with K. pneumoniae LMG20218 (LMG20218, read-out: MIC value) was 128 µM (≈ 186 µg/mL); with K. pneumoniae LMG20218 (LMG20218, read-out: MIC value of antimicrobial compounds alone), 128 µM (≈ 186 µg/mL); in the data set with A. baumannii LMG01041 (LMG01041, read-out: MIC value) it was 32 µM (≈ 46.4 µg/mL); in the data set on A. baumannii LMG01041 (LMG01041, read-out: MIC value of antimicrobial compounds alone) it was 32 µM (≈ 46.4 µg/mL); in [1] (ATCCBAA1605), 64 µg/mL; in [1] (ATCCBAA1605, read-out: MIC value), 44.2 µM. For the same compound, the MIC was 32 µg/mL in [2]; 22.1 µM in data set [2] (read-out: MIC value); above 128 µg/mL in data set [3] (ATCCBAA2452); above 88.3 µM in data set [3] (ATCCBAA2452, read-out: MIC value); 128 µg/mL in data set [4]; 88.3 µM in data set [4] (read-out: MIC value). Moreover, the MIC in [5] (ATCCBAA2524) was above 128 µg/mL; in data set [5] (ATCCBAA2524, read-out: MIC value), above 88.3 µM; in data set [6], above 128 µg/mL; in data set [6] (read-out: MIC value), above 88.3 µM; in [7] (ATCCBAA2108) it was above 128 µg/mL; in data set [7] (ATCCBAA2108, read-out: MIC value), above 88.3 µM. The figures for the MIC in [8] and in data set [8] (read-out: MIC value) were 128 µg/mL and 88.3 µM, respectively. In addition, the results for the MICa in the data set with E. aerogenes LMG 02094 (MIC of vancomycin alone), in the data set on E. coli LMG15862 (MIC of vancomycin alone) and in the data set on P. aeruginosa LMG 6395 (MIC of vancomycin alone) were 192 µM, 64 µM and 128 µM, respectively. Besides, the “Effect on ATP levels” value in the data set on HEK293 cells (at concentrations tested) is “do not affect the ATP levels”.

In the case of `CC[C@@H](C)[C@@H](NC(=O)[C@@H](CCCNC(=N)N)NC(=O)[C@@H](CCCNC(=N)N)NC(=O)[C@@H](Cc1ccccc1)NC(=O)[C@@H](CC(C)C)NC(=O)[C@@H](CCCNC(=N)N)NC(=O)[C@H](N)CCCNC(=N)N)C(=O)N[C@H](CC(C)C)C(=O)N[C@H](CCCNC(=N)N)C(=O)N[C@H](Cc1c[nH]c2ccccc12)C(=O)N[C@H](CC(C)C)C(N)=O` [GNP-D6], the MIC value worked out at 2 µM (≈ 3.17 µg/mL) against K. pneumoniae LMG20218 (alone, K. pneumoniae LMG20218); 2 µM (≈ 3.17 µg/mL) in the data set with A. baumannii LMG01041 (alone, A. baumannii LMG01041); 5.05 µM in data set [1] (alone, MDR A. baumannii ATCC BAA-1605); 2.53 µM in [2] (alone, A. baumannii B2026, colistin resistant); 1.27 µM in data set [3] (alone, MDR E. coli ATCC BAA-2452); 1.27 µM in data set [4] (alone, MDR E. coli B1927). The MIC value in [5] (alone, MDR K. pneumoniae ATCC BAA-2524) is 2.53 µM; in data set [6] (alone, MDR K. pneumoniae B1945) it was 5.05 µM; in [7] (alone, MDR P. aeruginosa ATCC BAA-2108), 5.05 µM; in data set [8] (alone, MDR P. aeruginosa B1954), 2.53 µM. For the same compound, the FICI was 0.667 with E. aerogenes LMG 02094 (vancomycin + GNP); 0.75 and 0.5 in the data set with E. coli LMG15862 (vancomycin + GNP); 0.75 in the data set on P. aeruginosa LMG 6395 (vancomycin + GNP). The IC50 in the data set with HEK293 cells (read-out: IC50 (cell viability, ATP levels)) came out at 32.9 µM.
